Source: ChEMBL document CHEMBL6127149, “Novel Papain-Like Protease Inhibitors for Treating Viral Infections, in Particular Coronavirus Infections” (ACS Med Chem Lett, 2024)

Target: Replicase polyprotein 1ab (Severe acute respiratory syndrome coronavirus 2, UniProt P0DTD1)
Assay: Inhibition of SARS-CoV-2 PLpro using Z-RLRGG-AMC as substrate preincubated for 30 mins followed by substrate addition and measured after 60 mins by SpectraMax microplate reader analysis

| Compound | IC50 |
| --- | --- |
| Cn1cc(-c2cc([C@@H](N)NC(=O)c3ccccc3CCC(=O)NNC(=O)[C@H]3O[C@@H]3C(=O)O)c3ccccc3n2)cn1 | 1 nM |
| CCOC(=O)[C@H]1O[C@@H]1C(=O)NNC(=O)CCc1ccccc1C(=O)N[C@H](N)c1cc(-c2cnn(C)c2)nc2ccccc12 | 2 nM |
| CCOC(=O)[C@@H]1O[C@H]1C(=O)NNC(=O)CCc1ccccc1C(=O)N[C@H](N)c1cc(-c2cnn(C)c2)nc2ccccc12 | 2 nM |
| COC(=O)[C@H]1O[C@@H]1C(=O)NNC(=O)CCc1ccccc1C(=O)N[C@H](N)c1cc(-c2cnn(C)c2)nc2ccccc12 | 2 nM |
